Molecular target: T1, human PDHK1 (hPDHK1) (Homo sapiens, UniProt Q15118)
T1 construct: made in house; host or cells: Escherichia coli BL21(DE3), pET17b vector
Experiment: Inhibitory action of PDHK1 activity in vitro (residual PDH activity after kinase reaction)
Assay type: biochemical
Details: PDH/hPDHK1 complex, 45 min kinase reaction at room temperature
Procedure: The inhibitory action of PDHK activity was assessed indirectly by measuring the residual PDH activity after kinase reaction in the presence of a test compound.
In the case of human PDHK1 (hPDHK1, Genbank Accession No. L42450.1), a 1.3 kbp fragment encoding this protein was isolated from human liver cDNA by polymerase chain reaction (PCR). Modified hPDHK1 cDNA wherein FLAG-Tag sequence was added to the N terminus was prepared by PCR and cloned into a vector (pET17b-Novagen). The recombinant construct was transformed into Escherichia coli (DH5α-TOYOBO). The recombinant clones were identified, and plasmid DNA was isolated and subjected to the DNA sequence analysis. One clone which had the expected nucleic acid sequence was selected for expression work. […]
Then, 10 μL of substrates (5 mmol/L sodium pyruvate, 5 mmol/L Coenzyme A, 12 mmol/L NAD, 5 mmol/L thiamin pyrophosphate, diluted with buffer) were added. The mixture was incubated at room temperature for 90 min, and the residual PDH activity was measured.
2.5 The absorbance at 340 nm before and after PDH reaction was measured using a microplate reader to detect NADH produced by the PDH reaction. The hPDHK1 inhibition rate (%) of the test compound was calculated from the formula [{(PDH activity of the test compound−PDH activity of control)/PDH activity of blank−PDH activity of control)}×100].

T1 sequence (Q15118 29-436): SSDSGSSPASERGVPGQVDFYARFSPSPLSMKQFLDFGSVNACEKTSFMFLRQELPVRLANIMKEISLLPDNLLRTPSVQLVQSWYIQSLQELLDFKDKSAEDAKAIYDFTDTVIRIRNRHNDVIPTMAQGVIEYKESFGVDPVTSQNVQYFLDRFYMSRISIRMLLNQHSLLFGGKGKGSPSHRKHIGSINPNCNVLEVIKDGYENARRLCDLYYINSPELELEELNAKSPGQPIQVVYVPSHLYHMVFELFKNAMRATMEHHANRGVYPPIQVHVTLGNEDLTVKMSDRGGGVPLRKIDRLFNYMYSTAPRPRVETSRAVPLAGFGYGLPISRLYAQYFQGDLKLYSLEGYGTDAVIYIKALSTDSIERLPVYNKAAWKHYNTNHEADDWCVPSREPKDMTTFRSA

For `C[C@H](O)COc1cc(-c2cnn(C(C)(C)C(N)=O)c2)c2c(c1)[C@@](O)(C(F)(F)F)c1ccccc1-2` [compound (2), 2-(4-{(9R)-9-hydroxy-2-[(2S)-2-hydroxypropoxy]-9-(trifluoromethyl)-9H-fluoren-4-yl}-1H-pyrazol-1-yl)-2-methylpropanamide], the IC50 was 5.1 nM.
